Results as given in ChEMBL document CHEMBL5550128, “Discovery and preclinical evaluations of TQB3616, a novel CDK4-biased inhibitor” (Bioorg Med Chem Lett, 2024).

Legend:
[1] = molecular target: T1, Retinoblastoma-associated protein (Homo sapiens) (UniProt P06400); test: Inhibition of Rb phosphorylation in human MCF7 cells incubated for 24 to 48 hrs by In-cell western assay; type: cell-based; details: dose 100-500 nM, time 24-48 hrs
T1 sequence (whole entry): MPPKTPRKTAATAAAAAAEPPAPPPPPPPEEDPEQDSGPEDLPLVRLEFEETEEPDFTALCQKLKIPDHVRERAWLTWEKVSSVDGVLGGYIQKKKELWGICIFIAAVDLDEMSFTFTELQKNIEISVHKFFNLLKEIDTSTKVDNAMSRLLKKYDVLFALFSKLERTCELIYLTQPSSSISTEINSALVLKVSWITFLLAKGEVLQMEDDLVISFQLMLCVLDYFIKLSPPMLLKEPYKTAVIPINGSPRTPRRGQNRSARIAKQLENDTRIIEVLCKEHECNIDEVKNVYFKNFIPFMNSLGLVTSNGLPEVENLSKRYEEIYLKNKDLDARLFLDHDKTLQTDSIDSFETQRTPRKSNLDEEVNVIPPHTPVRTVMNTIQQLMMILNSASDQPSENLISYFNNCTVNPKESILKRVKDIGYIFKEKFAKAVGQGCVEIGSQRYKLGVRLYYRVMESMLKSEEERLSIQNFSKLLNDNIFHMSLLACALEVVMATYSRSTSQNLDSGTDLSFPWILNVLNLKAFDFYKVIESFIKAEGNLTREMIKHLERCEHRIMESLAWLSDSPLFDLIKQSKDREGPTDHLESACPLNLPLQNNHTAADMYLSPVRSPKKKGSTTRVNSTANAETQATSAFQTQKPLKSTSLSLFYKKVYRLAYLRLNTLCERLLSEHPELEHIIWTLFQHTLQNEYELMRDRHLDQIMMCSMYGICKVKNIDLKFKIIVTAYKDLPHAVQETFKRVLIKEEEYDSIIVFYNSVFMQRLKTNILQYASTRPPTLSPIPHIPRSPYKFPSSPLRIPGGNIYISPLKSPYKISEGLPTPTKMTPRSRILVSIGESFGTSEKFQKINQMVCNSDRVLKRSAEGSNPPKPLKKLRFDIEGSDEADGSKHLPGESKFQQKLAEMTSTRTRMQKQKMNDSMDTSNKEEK

[2] = Plasma protein in mouse assessed as unbound fraction; type: ADME, cell-free
Cytochrome P450 2D6 = Cytochrome P450 2D6 (Homo sapiens, UniProt P10635); test: Inhibition of CYP2D6 (unknown origin) using […] as substrate; type: ADME
Chain of Cytochrome P450 2D6 (P10635 whole entry): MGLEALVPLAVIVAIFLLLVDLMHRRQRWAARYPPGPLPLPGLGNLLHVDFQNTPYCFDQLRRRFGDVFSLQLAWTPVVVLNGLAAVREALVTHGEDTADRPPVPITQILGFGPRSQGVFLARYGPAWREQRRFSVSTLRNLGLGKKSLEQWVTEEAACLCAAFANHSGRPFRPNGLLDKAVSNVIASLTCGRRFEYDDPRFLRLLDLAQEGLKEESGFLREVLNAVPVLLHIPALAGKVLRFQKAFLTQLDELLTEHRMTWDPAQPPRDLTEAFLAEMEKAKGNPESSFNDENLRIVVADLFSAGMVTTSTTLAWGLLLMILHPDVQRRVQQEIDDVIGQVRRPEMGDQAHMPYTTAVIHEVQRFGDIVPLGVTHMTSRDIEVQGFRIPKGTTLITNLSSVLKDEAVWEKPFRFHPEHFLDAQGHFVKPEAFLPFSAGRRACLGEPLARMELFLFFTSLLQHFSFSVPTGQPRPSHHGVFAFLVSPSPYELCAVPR

[3] = Aqueous solubility of compound at pH <=4.5; type: physicochemical
[4] = Cmax in CD-1 mouse at 2 mg/kg, po; type: ADME, organism-based; details: in vivo
NCI-H460 = test: Inhibition of cell proliferation in human NCI-H460 cells at 0.3 uM incubated for 72 hrs by Cell Titer Glo assay relative to control; type: functional
MCF7 [5] = test: Antiproliferative activity against Rb-proficient human MCF7 cells assessed as inhibition of cellular viability; type: functional, cell-based
A673 = test: Inhibition of cell proliferation in human A673 cells at 0.3 uM incubated for 72 hrs by Cell Titer Glo assay relative to control; type: functional
[6] = Oral bioavailability in Sprague-Dawley rat at 6 mg/kg; type: ADME, organism-based; details: in vivo
[7] = molecular target: T1, Retinoblastoma-associated protein (Homo sapiens); test: Inhibition of Rb phosphorylation in human MCF7 cells at 100 to 500 nM by In-cell western assay; type: cell-based; details: dose 100-500 nM, time 24-48 hrs, TDE = time-dependent effect
MCF7 [8] = test: Antitumor activity against human MCF7 cells xenografted in mouse at 5 mg/kg, po qd for 3 weeks relative to control; type: functional; details: MCF7, 504 h, read-out: TGI
MKN-45 = test: Inhibition of cell proliferation in human MKN-45 cells at 0.3 uM incubated for 72 hrs by Cell Titer Glo assay relative to control; type: functional
NCI-H1299 = test: Inhibition of cell proliferation in human NCI-H1299 cells at 0.3 uM incubated for 72 hrs by Cell Titer Glo assay relative to control; type: functional
[9] = Intrinsic clearance in CD-1 mouse at 0.5 mg/kg, iv; type: ADME, organism-based; details: in vivo
SK-MEL-28 = test: Inhibition of cell proliferation in human SK-MEL-28 cells at 0.3 uM incubated for 72 hrs by Cell Titer Glo assay relative to control; type: functional
MCF7 [10] = test: Induction of cell cycle arrest at G2 phase in Rb-proficient human MCF7 cells at 0.16 uM (reference value: 24.74 %); type: functional
[11] = molecular target: T1, Retinoblastoma-associated protein (Homo sapiens); test: Inhibition of Rb phosphorylation in human MCF7 cells assessed as decrease in FoxM1 level incubated for 24 to 48 hrs by In-cell western assay; type: cell-based; details: dose 100-500 nM, time 24-48 hrs
MIA PaCa-2 = test: Inhibition of cell proliferation in human MIA PaCa-2 cells at 0.3 uM incubated for 72 hrs by Cell Titer Glo assay relative to control; type: functional
[12] = AUC (0 to last) in Sprague-Dawley rat at 6 mg/kg, po; type: ADME, organism-based; details: in vivo
[13] = Plasma protein in dog assessed as unbound fraction; type: ADME, cell-free, Canis lupus familiaris
[14] = Antitumor activity against human PDX ES-06-0130 cells xenografted in mouse at 40 mg/kg, po qd for 3 weeks relative to control; type: functional; details: PDX ES-06-0130, 504 h, read-out: TGI
[15] = AUC (0 to last) in Beagle dog at 2 mg/kg, po; type: ADME, organism-based, Canis lupus familiaris; details: in vivo
[16] = Plasma protein in monkey assessed as unbound fraction; type: ADME, cell-free, Macaca mulatta; details: rhesus monkey
[17] = Inhibition of cell proliferation in human MINO cells at 0.3 uM incubated for 72 hrs by Cell Titer Glo assay relative to control; type: functional
[18] = Volume of distribution at steady state in Beagle dog at 0.6 mg/kg, iv; type: ADME, organism-based, Canis lupus familiaris; details: in vivo, read-out: Vdss
[19] = Cmax in Beagle dog at 2 mg/kg, po; type: ADME, organism-based, Canis lupus familiaris; details: in vivo
[20] = molecular target: Voltage-gated inwardly rectifying potassium channel KCNH2 (Homo sapiens, UniProt Q12809); test: Inhibition of hERG; type: toxicity
Chain of Voltage-gated inwardly rectifying potassium channel KCNH2 (Q12809 whole entry): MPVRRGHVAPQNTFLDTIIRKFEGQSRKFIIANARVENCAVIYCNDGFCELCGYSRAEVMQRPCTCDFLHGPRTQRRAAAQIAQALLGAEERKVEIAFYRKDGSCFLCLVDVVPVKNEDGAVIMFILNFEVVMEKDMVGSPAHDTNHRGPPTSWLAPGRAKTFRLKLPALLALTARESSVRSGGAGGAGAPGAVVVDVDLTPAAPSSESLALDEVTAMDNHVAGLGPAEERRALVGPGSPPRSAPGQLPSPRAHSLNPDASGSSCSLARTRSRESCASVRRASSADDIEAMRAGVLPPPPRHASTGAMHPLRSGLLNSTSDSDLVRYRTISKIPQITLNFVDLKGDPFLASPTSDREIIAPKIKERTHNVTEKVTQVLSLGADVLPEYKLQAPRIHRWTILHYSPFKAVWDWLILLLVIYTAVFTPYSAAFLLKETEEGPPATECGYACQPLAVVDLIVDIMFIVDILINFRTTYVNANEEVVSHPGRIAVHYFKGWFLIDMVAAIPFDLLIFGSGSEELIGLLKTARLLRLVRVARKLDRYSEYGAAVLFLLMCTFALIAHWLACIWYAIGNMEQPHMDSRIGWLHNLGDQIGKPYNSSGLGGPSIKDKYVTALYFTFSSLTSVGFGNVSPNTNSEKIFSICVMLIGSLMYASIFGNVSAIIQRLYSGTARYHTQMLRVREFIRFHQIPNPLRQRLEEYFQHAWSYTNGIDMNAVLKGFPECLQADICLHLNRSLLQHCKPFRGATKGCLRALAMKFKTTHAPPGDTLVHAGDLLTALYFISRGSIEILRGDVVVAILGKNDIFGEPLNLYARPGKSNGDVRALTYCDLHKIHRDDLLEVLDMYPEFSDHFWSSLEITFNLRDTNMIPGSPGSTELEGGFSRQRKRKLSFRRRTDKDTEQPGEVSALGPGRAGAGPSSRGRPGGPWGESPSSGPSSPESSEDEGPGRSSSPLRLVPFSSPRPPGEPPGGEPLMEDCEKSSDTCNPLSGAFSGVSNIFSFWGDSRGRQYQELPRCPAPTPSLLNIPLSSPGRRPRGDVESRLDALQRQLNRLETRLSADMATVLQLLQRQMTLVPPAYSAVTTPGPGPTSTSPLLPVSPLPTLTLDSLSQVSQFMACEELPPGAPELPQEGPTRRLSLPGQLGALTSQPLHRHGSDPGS

MV4-11 = test: Inhibition of cell proliferation in human MV4-11 cells at 0.3 uM incubated for 72 hrs by Cell Titer Glo assay relative to control; type: functional
[21] = Volume of distribution at steady state in Sprague-Dawley rat at 1 mg/kg, iv; type: ADME, organism-based; details: in vivo, read-out: Vdss
DU-145 = test: Inhibition of cell proliferation in human DU-145 cells at 0.3 uM incubated for 72 hrs by Cell Titer Glo assay relative to control; type: functional
[22] = Half life in CD-1 mouse at 0.5 mg/kg, iv; type: ADME, organism-based; details: in vivo
[23] = Permeability across apical to basal side in human Caco-2 cells; type: ADME, cell-based; details: read-out: permeability
MCF7 [24] = test: Antitumor activity against human MCF7 cells xenografted in mouse at 15 mg/kg, po qd for 3 weeks relative to control; type: functional; details: MCF7, 504 h, read-out: TGI
Cytochrome P450 2C9 = Cytochrome P450 2C9 (Homo sapiens, UniProt P11712); test: Inhibition of CYP2C9 (unknown origin) using […] as substrate; type: ADME
Chain of Cytochrome P450 2C9 (P11712 whole entry): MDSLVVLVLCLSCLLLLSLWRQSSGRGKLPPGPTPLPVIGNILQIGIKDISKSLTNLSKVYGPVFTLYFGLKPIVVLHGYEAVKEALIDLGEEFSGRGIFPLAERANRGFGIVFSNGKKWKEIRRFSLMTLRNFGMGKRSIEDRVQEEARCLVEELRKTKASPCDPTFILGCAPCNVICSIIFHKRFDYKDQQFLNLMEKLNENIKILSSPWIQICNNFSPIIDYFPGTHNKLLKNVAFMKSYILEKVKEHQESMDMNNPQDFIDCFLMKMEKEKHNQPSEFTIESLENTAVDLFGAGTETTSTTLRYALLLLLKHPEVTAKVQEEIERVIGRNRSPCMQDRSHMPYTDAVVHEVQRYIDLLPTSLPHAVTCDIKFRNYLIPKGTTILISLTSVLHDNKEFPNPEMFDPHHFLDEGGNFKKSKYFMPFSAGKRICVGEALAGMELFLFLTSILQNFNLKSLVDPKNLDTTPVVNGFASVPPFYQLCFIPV

Question: What does the source list for `CC(C)c1c2cc(-c3nc(Nc4ccc(N5CCNCC5)cn4)ncc3F)ccc2nn1C` [CULMERCICLIB]?
Answer: inhibition [1]: Dose-Dependent Effect; fraction unbound [2]: 0.026; IC50 (Cytochrome P450 2D6): > 50 µM; solubility [3]: > 2000 µg/mL; Cmax [4]: 248 nM; inhibition at 0.3 µM (NCI-H460): 50.4%; IC50 (MCF7 [5]): 0.0321 µM; inhibition at 0.3 µM (A673): -4.1%; bioavailability [6]: 74.9%; inhibition [7]: Tde; inhibition in vivo at 5 mg/kg (MCF7 [8]): 68%; inhibition at 0.3 µM (MKN-45): 53.1%; inhibition at 0.3 µM (NCI-H1299): 57.5%; CL [9]: 31.3 mL/min/kg; inhibition at 0.3 µM (SK-MEL-28): 13.7%; Activity (MCF7 [10]): 24.73%; inhibition [11]: Dose-Dependent Effect; inhibition at 0.3 µM (MIA PaCa-2): 48%; AUC(0-t) [12]: 5.88 µM·h; fraction unbound [13]: 0.051; inhibition in vivo at 40 mg/kg [14]: 62%; AUC(0-t) [15]: 1.24 µM·h; fraction unbound [16]: 0.061; inhibition at 0.3 µM [17]: 67%; Vd [18]: 17.1 L/kg; Cmax [19]: 109 nM; IC50 [20]: 5.3 µM; inhibition at 0.3 µM (MV4-11): 71.1%; Vd [21]: 11 L/kg; inhibition at 0.3 µM (DU-145): 27.3%; half-life [22]: 2.3 h; Papp A→B [23]: 0.4 ×10⁻⁶ cm/s; inhibition in vivo at 15 mg/kg (MCF7 [24]): 93%; IC50 (Cytochrome P450 2C9): 23 µM
